Data: ChEMBL document CHEMBL4376892, “Identification of Parthenolide Dimers as Activators of Pyruvate Kinase M2 in Xenografts of Glioblastoma Multiforme in Vivo” (J Med Chem, 2020)
The source made the active and inactive calls. The rule behind the calls is not given here.

How the values were obtained:
[1] = target: T1, Pyruvate kinase PKM (Homo sapiens, UniProt P14618); test: Activation of recombinant human N-terminal 6His-tagged PKM2 expressed in Escherichia coli BL21 cells after 50 mins by fluorescence based analysis
Target sequence in this assay (P14618 whole entry): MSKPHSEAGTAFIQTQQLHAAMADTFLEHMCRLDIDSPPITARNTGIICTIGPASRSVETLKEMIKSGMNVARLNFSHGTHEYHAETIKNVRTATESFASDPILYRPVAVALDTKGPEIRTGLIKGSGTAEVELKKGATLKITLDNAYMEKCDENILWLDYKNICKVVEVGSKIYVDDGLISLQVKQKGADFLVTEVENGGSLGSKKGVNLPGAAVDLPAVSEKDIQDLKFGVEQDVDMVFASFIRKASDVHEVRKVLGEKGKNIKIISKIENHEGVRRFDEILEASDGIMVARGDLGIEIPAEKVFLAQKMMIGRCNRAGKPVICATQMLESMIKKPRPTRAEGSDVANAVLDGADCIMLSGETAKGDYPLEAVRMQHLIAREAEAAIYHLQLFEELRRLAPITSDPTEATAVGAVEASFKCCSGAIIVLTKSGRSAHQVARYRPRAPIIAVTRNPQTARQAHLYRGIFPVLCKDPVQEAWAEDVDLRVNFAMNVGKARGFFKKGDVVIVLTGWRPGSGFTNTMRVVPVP

[2] = system: U-118-MG; test: Antimetastatic activity against human U118MG cells assessed as reduction in cell invasion at 2 uM after 24 hrs by crystal violet staining based transwell assay; assay type: functional
[3] = system: U-118-MG; test: Induction of apoptosis in human U118MG cells transfected with lentivirus expressing shPKM2 assessed as late apoptotic cells after 48 hrs by Annexin-V-FITC/PI-staining based flow cytometric analysis (reference value: 0.221%); assay type: functional
[4] = target: T1, Pyruvate kinase PKM; test: Activation of PKM2 in human U118MG cells assessed as inhibition of STAT3 protein expression at 1 to 2 uM after 24 hrs by Western blot analysis; assay type: cell-based
Target sequence in this assay (P14618 2-531 limits assumed): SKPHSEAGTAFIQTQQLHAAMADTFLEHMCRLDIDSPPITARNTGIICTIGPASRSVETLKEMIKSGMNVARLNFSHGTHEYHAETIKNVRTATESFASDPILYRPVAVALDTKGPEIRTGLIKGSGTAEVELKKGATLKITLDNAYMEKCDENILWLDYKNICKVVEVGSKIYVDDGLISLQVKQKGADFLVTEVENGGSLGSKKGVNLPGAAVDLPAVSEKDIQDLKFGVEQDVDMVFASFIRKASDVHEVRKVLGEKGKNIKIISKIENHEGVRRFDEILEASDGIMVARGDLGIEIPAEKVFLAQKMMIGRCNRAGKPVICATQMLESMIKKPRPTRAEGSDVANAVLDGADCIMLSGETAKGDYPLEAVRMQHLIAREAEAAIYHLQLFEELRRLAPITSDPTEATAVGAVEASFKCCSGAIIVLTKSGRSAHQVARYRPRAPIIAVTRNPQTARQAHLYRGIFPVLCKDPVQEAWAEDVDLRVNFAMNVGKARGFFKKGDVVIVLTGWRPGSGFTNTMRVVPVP

[5] = target: T1, Pyruvate kinase PKM; test: Binding affinity to recombinant human N-terminal 6His-tagged PKM2 expressed in Escherichia coli BL21 cells assessed as increase in thermal stability of enzyme at melting temperature of 42 to 56 degC at 10 to 50 uM by western blot analysis
Target sequence in this assay (P14618 2-531 limits assumed): as above

[6] = system: U-118-MG; test: Effect on P65 protein expression in human U118MG cells at 0.2 to 0.5 uM after 48 hrs by Western blot analysis; assay type: functional, cell-based
[7] = system: U-87 MG; test: Antimetastatic activity against human U87 cells assessed as reduction in cell invasion at 2 uM after 24 hrs by crystal violet staining based transwell assay; assay type: functional; conditions: U-87MG ATCC
[8] = system: U-118-MG; test: Induction of apoptosis in human U118MG cells assessed as viable cells after 48 hrs by Annexin-V-FITC/PI-staining based flow cytometric analysis (reference value: 96.7%); assay type: functional
[9] = target: T1, Pyruvate kinase PKM; test: Activation of PKM2 in human U87 cells assessed as increase in bax protein expression at 1 to 2 uM after 48 hrs by Western blot analysis; assay type: cell-based; conditions: U-87MG ATCC
Target sequence in this assay (P14618 2-531 limits assumed): as above

[10] = target: T2, Inhibitor of nuclear factor kappa-B kinase subunit beta (Homo sapiens) (UniProt O14920); test: Effect on IKKbeta phosphorylation in human U118MG cells at 0.2 to 0.5 uM after 48 hrs by Western blot analysis; assay type: cell-based
T2 sequence (whole entry): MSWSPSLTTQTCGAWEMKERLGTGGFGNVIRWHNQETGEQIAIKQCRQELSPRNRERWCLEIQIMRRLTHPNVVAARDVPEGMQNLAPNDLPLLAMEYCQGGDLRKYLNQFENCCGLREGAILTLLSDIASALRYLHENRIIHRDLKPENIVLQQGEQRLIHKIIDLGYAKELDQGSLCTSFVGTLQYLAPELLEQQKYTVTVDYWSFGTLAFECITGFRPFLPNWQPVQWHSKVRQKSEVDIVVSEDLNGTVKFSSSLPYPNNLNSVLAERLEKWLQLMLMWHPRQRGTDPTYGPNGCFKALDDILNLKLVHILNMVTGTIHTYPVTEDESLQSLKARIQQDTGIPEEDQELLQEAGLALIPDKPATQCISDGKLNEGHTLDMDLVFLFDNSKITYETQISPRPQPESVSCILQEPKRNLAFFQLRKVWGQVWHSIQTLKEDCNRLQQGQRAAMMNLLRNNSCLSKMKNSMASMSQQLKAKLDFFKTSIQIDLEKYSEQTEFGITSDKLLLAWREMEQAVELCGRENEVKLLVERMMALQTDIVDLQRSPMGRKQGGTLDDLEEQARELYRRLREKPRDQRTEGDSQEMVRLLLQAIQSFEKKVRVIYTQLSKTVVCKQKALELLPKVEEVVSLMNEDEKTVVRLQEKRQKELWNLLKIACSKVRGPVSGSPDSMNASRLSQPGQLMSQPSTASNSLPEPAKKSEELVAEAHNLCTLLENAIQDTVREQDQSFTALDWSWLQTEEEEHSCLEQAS

[11] = system: U-251; test: Antiproliferative activity against human U251 cells assessed as reduction in cell viability after 72 hrs by MTT assay; assay type: functional, cell-based; conditions: U-251, 72 h
[12] = system: U-87 MG; test: Antimigratory activity against human U87 cells transfected with lentivirus expressing shNC at 2 uM incubated for 48 hrs by crystal violet staining based transwell assay; assay type: functional, cell-based; conditions: U-87MG ATCC
[13] = system: U-118-MG; test: Induction of apoptosis in human U118MG cells transfected with lentivirus expressing shPKM2 assessed as necrotic cells after 48 hrs by Annexin-V-FITC/PI-staining based flow cytometric analysis (reference value: 0.105%); assay type: functional
[14] = system: U-118-MG; test: Induction of apoptosis in human U118MG cells transfected with lentivirus expressing shNC assessed as viable cells after 48 hrs by Annexin-V-FITC/PI-staining based flow cytometric analysis (reference value: 96.7%); assay type: functional
[15] = system: U-87 MG; test: Induction of apoptosis in human U87 cells transfected with lentivirus expressing shPKM2 assessed as late apoptotic cells after 48 hrs by Annexin-V-FITC/PI-staining based flow cytometric analysis (reference value: 1.25%); assay type: functional, U-87MG ATCC
[16] = system: U-118-MG; test: Induction of apoptosis in human U118MG cells assessed as late apoptotic cells after 48 hrs by Annexin-V-FITC/PI-staining based flow cytometric analysis (reference value: 0.616%); assay type: functional

AC50 [1]: 0.015 µM
Activity [4]: Active
Activity [5]: Active
Activity [9]: Active
Activity [10]: inactive
IC50 [11]: 7.14 µM
Compound: C=C1C(=O)O[C@H]2[C@H]1CC/C(C(=O)OCCOCCOC(=O)/C1=C/CC[C@@]3(C)O[C@H]3[C@H]3OC(=O)C(=C)[C@@H]3CC1)=C\CC[C@@]1(C)O[C@@H]21
Activity [2]: Active
Activity [3]: 1.32%
Activity [6]: inactive
Activity [7]: Active
Activity [8]: 12.5%
Activity [12]: Active
Activity [13]: 0.09%
Activity [14]: 34.7%
Activity [15]: 2.76%
Activity [16]: 42.1%
